The record followed here is patent US12404242B2, “Compositions and methods for making and using small molecules in the treatment of cancer” (Reglagene, Inc., priority 2021, dated 2025).

Series [1] relates to LNCaP cells. Briefly: Cell viability (AlamarBlue), LNCaP prostate cancer cells. The format is cell-based, human. Also on record: key to EC50 (μM) in LNCaP cells: Inactive: less than 50% inhibition at the highest concentration tested at 50 μM. The settings on record: 72 hours of treatment. How it is done: (§1) In another exemplary method, half maximal effective concentration (EC50) was determined for some compounds and their isomers as disclosed herein in a variety of human cancer cell lines. In brief, cells from two prostate cancer cell lines (LNCaP, 22RV1), one glioblastoma cell line (U87), one breast cancer cell line (MCF7), a glioma cell line (LN18), a normal prostate cell line (RWPE1), and a glioblastoma cell line (T98G) were plated in a multi-well plate. After 24 hours, one of the compounds herein was added to the well at increasing concentrations. After 72 hours of treatment, cell viability was assessed using AlamrBlue® (Invitrogen) and fluorescence was read using the CLARIOstar Plus Multilabel Plate Reader (BMG Labtech). Samples were normalized to no treatment controls. EC50 values were determined using GraphPad Prism.

For series [2], the system named is RWPE1 cells. Briefly: Cell viability (AlamarBlue), RWPE1 normal prostate cells. The format is cell-based, human. Also on record: key to EC50 (μM) in RWPE1 cells: Inactive: less than 50% inhibition at the highest concentration tested at 50 μM. As to conditions: normal prostate cell line; for EC50 (μM) in RWPE1 cells: 72 hours of treatment. How it is done:
as §1
On the technique in general: The colour change of resazurin is a common sign of viable cells or microbes.

Series [3] relates to 22RV1 cells. As to the kind of experiment: Cell viability (AlamarBlue), 22RV1 prostate cancer cells. In kind it is cell-based, human. Also on record: key to EC50 (μM) in 22RV1 cells: Inactive: less than 50% inhibition at the highest concentration tested at 50 μM. The settings on record: 72 hours of treatment. As to the method: as §1
Series [4] has as its system U87 cells. As to the kind of experiment: Cell viability (AlamarBlue), U87 glioblastoma cells. In kind it is cell-based, human. Details: key to EC50 (μM) in U87 cells: Inactive: less than 50% inhibition at the highest concentration tested at 50 μM. As to conditions: 72 hours of treatment. As to the method: as §1
Series [5] can be described thus: Kinetic solubility in aqueous PBS buffer (HPLC-MS). The format is physicochemical. The settings on record: kinetic from dmso stock, DMSO stock mixed with aqueous PBS buffer, filtered, read-out: Kinetic Solubility. As to the method:
In another exemplary method, central nervous system multiparameter optimization (CNS MPO) score and kinetic solubility of selected compounds was determined. CNS MPO score for compounds and their isomers disclosed herein were calculated using an algorithm that uses a weighted scoring function assessing 6 key physicochemical properties (clogP, clogD, MW, TPSA, HBD, and pKa) for blood-brain-barrier (BBB penetration). CNS MPO score ranged from 0 and 6.0 with scores≥4.0 used as a cut-off to select compounds that can have a high probability of accumulating in the CNS. Kinetic solubility of a compound is the maximum solubility of the fastest precipitating species of the compound. Kinetic solubility was determined by preparing a concentrated stock solution for compounds and their isomers disclosed herein in an organic solvent (DMSO), after which the solution was mixed with an aqueous PBS buffer and then filtered. Filtrate was tested to quantify the kinetic solubilty using HPLC-MS calibration curve. The CNS MPO Score and kinetic solubility of the compounds tested are provided in Table 7 where “ND” means not determined.

≈ marks a conversion by molar mass, not a printed value.

In general, EC50 refers to the concentration giving half of the maximal effect. `COC1CCC(C(=O)NC(=O)Nc2ccc(Oc3ncc(Cl)cn3)c(F)c2)CC1` (single isomer, unassigned) [Compound 14A, N-((4-((5-chloropyrimidin-2-yl)oxy)-3-fluorophenyl)carbamoyl)-4-methoxycyclohexane-1-carboxamide]: the half-maximal effective concentration (EC50) worked out at 1.8 µM in series [1] (Homo sapiens, LNCaP, 72 h); 1.3 µM in series [2] (Homo sapiens, RWPE-1, 72 hours of treatment); 1.1 µM in series [3] (Homo sapiens, 22Rv1, 72 h); 1.3 µM in series [4] (Homo sapiens, U-87 MG, 72 h).

Turning to `COC1CCC(C(=O)NC(=O)Nc2ccc(Oc3ncc(Cl)cn3)c(F)c2)CC1` (single isomer, unassigned) [Compound 14B, N-((4-((5-chloropyrimidin-2-yl)oxy)-3-fluorophenyl)carbamoyl)-4-methoxycyclohexane-1-carboxamide], the “EC50 (μM) in RWPE1 cells” value in series [2] is reported as “Inactive”. Also, the “EC50 (μM) in 22RV1 cells” value in series [3] was “Inactive”. Further, in series [4], the “EC50 (μM) in U87 cells” value was “Inactive”.

For `COC1CC(C(=O)NC(=O)Nc2ccc(Oc3ccc(F)cn3)c(C)c2)C1` (single isomer, unassigned) [Compound 15B, N-((4-((5-fluoropyridin-2-yl)oxy)-3-methylphenyl)carbamoyl)-3-methoxycyclobutanecarboxamide], the concentration for a half-maximal effect (EC50) in series [1] came to 3.9 µM; in series [3] it was 17.3 µM; in series [4] it was 22 µM. The “EC50 (μM) in RWPE1 cells” value in series [2] is given as “Inactive”.

On to `COC1CC(C(=O)NC(=O)Nc2ccc(Oc3ccc(C#N)cn3)c(C)c2)C1` (single isomer, unassigned) [Compound 16B, N-((4-((5-cyanopyridin-2-yl)oxy)-3-methylphenyl)carbamoyl)-3-methoxycyclobutane-1-carboxamide], for which the concentration giving a half-maximal response (EC50) in series [1] turned out to be 5 µM; in series [3], 21.2 µM; in series [4], 24 µM. Also, the “EC50 (μM) in RWPE1 cells” value in series [2] is “Inactive”.

Consider `COC1CC(C(=O)NC(=O)Nc2ccc(Oc3ccc(Cl)cn3)c(C)c2)C1` (single isomer, unassigned) [Compound 19B, 1-{4-[(5-chloropyridin-2-yl)oxy]-3-methylphenyl}-3-(3-methoxycyclobutanecarbonyl) urea], for which the concentration for a half-maximal effect (EC50) in series [1] turned out to be 1.3 µM; in series [3] it was 4.2 µM; in series [4], 13.7 µM. Besides, in series [2], the “EC50 (μM) in RWPE1 cells” value is recorded as “Inactive”.

In general, solubility (kinetic) refers to solubility judged after dilution from a stock solution rather than from solid. As for `COC1CCC(C(=O)NC(=O)Nc2ccc(Oc3ccc(C#N)cn3)c(C)c2)CC1` (stereo not drawn) [Compound 6, 3-{4-[(5-cyanopyridin-2-yl)oxy]-3-methylphenyl}-1-(4-methoxycyclohexanecarbonyl)urea], in series [5], the kinetic solubility amounted to 0.53 µM (≈ 0.216 µg/mL).

For the compound `COC1CC(C(=O)NC(=O)Nc2ccc(Oc3ccc(F)cn3)c(C)c2)C1` (stereo not drawn) [Compound 15, N-((4-((5-fluoropyridin-2-yl)oxy)-3-methylphenyl)carbamoyl)-3-methoxycyclobutane-1-carboxamide], the solubility (kinetic) in series [5] was determined as 14.7 µM (≈ 5.48 µg/mL).

As for `COC1CC(C(=O)NC(=O)Nc2ccc(Oc3ccc(C#N)cn3)c(C)c2)C1` (stereo not drawn) [Compound 16, N-((4-((5-cyanopyridin-2-yl)oxy)-3-methylphenyl)carbamoyl)-3-methoxycyclobutane-1-carboxamide], the solubility (kinetic) in series [5] worked out at 11.6 µM (≈ 4.41 µg/mL).

With `COC1CC(C(=O)NC(=O)Nc2ccc(Oc3ncc(Cl)cn3)c(C)c2)C1` (stereo not drawn) [Compound 20, N-((4-((5-chloropyrimidin-2-yl)oxy)-3-methylphenyl)carbamoyl)-3-methoxycyclobutane-1-carboxamide], in series [5], the kinetic solubility is 7.1 µM (≈ 2.77 µg/mL).

`COC1CC(C(=O)NC(=O)Nc2ccc(Oc3nccs3)c(C)c2)C1` (stereo not drawn) [Compound 45, 3-methoxy-N-((3-methyl-4-(thiazol-2-yloxy)phenyl)carbamoyl)cyclobutane-1-carboxamide]: the solubility (kinetic) in series [5] was determined as 58.4 µM (≈ 21.1 µg/mL).

For `COC1CCC(C(=O)NC(=O)Nc2ccc(Oc3cnc(N4CCOCC4)nc3)c(C)c2)CC1` (stereo not drawn) [Compound 46, 4-methoxy-N-((3-methyl-4-((2-morpholinopyrimidin-5-yl)oxy)phenyl)carbamoyl)cyclohexane-1-carboxamide], the EC50 in series [1] (Homo sapiens, LNCaP, 72 h) stood at 2.9 µM; in series [3] (Homo sapiens, 22Rv1, 72 h) it was 8 µM. Further, the kinetic solubility in series [5] came to 0.39 µM (≈ 0.183 µg/mL). For the same compound, the “EC50 (μM) in U87 cells” value in series [4] was “Inactive”.

`COCCOC1CC(C(=O)NC(=O)Nc2ccc(Oc3ncc(Cl)cn3)c(C)c2)C1` (stereo not drawn) [Compound 48, N-((4-((5-chloropyrimidin-2-yl)oxy)-3-methylphenyl)carbamoyl)-3-(2-methoxyethoxy)cyclobutane-1-carboxamide]: the EC50 came to 12.4 µM in series [1] (Homo sapiens, LNCaP, 72 h); 3.2 µM in series [3] (Homo sapiens, 22Rv1, 72 h); 6.4 µM in series [4] (Homo sapiens, U-87 MG, 72 h). The kinetic solubility in series [5] came out at 84.2 µM (≈ 36.6 µg/mL).

As to `COCCOC1CC(C(=O)NC(=O)Nc2ccc(Oc3ccc(Cl)cn3)c(C)c2)C1` (stereo not drawn) [Compound 49, N-((4-((5-chloropyridin-2-yl)oxy)-3-methylphenyl)carbamoyl)-3-(2-methoxyethoxy)cyclobutane-1-carboxamide], the EC50 in series [1] (Homo sapiens, LNCaP, 72 h) came to 11.8 µM; in series [3] (Homo sapiens, 22Rv1, 72 h), 1.3 µM; in series [4] (Homo sapiens, U-87 MG, 72 h), 3.7 µM. In addition, the solubility (kinetic) in series [5] is 37.5 µM (≈ 16.3 µg/mL).

On to `COCCOC1CCC(C(=O)NC(=O)Nc2ccc(Oc3ncc(Cl)cn3)c(F)c2)CC1` (stereo not drawn) [Compound 54, N-((4-((5-chloropyrimidin-2-yl)oxy)-3-fluorophenyl)carbamoyl)-4-(2-methoxyethoxy)cyclohexane-1-carboxamide], for which, in series [1], the “EC50 (μM) in LNCaP cells” value is “Inactive”. For the same compound, the “EC50 (μM) in 22RV1 cells” value in series [3] was “Inactive”. Besides, the “EC50 (μM) in U87 cells” value in series [4] is listed as “Inactive”.

`COC1CC(C(=O)NC(=O)Nc2ccc(Oc3nncs3)c(C)c2)C1` (stereo not drawn) [Compound 55, N-((4-((1,3,4-thiadiazol-2-yl)oxy)-3-methylphenyl)carbamoyl)-3-methoxycyclobutanecarboxamide]: the “EC50 (μM) in LNCaP cells” value in series [1] is “Inactive”. The compound further yielded an EC50 in series [3] (Homo sapiens, 22Rv1, 72 h) of 30.6 µM. Besides, the “EC50 (μM) in U87 cells” value in series [4] is “Inactive”.

On to `COC1CC(C(=O)NC(=O)Nc2ccc(Oc3ncns3)c(C)c2)C1` (stereo not drawn) [Compound 57, N-((4-((1,2,4-thiadiazol-5-yl)oxy)-3-methylphenyl)carbamoyl)-3-methoxycyclobutane-1-carboxamide], for which the EC50 worked out at 3.1 µM in series [1] (Homo sapiens, LNCaP, 72 h); 6.3 µM in series [3] (Homo sapiens, 22Rv1, 72 h); 13.5 µM in series [4] (Homo sapiens, U-87 MG, 72 h). In series [5], the solubility (kinetic) was found to be 75 µM (≈ 27.2 µg/mL).

`COC1CC(C(=O)NC(=O)Nc2ccc(Oc3ncc(C(F)(F)F)s3)c(C)c2)C1` (stereo not drawn) [Compound 61, 3-methoxy-N-((3-methyl-4-((5-(trifluoromethyl)thiazol-2-yl)oxy)phenyl)carbamoyl)cyclobutane-1-carboxamide]: the EC50 in series [1] (Homo sapiens, LNCaP, 72 h) stood at 0.93 µM; in series [3] (Homo sapiens, 22Rv1, 72 h), 1.6 µM; in series [4] (Homo sapiens, U-87 MG, 72 h), 0.35 µM.

For the compound `COC1CC(C(=O)NC(=O)Nc2ccc(Oc3ncc(C#N)s3)c(C)c2)C1` (stereo not drawn) [Compound 62, N-((4-((5-cyanothiazol-2-yl)oxy)-3-methylphenyl)carbamoyl)-3-methoxycyclobutane-1-carboxamide], the half-maximal effective concentration (EC50) came to 21 µM in series [1] (Homo sapiens, LNCaP, 72 h); 1 µM in series [3] (Homo sapiens, 22Rv1, 72 h); 5.4 µM in series [4] (Homo sapiens, U-87 MG, 72 h).

With `COC1(C(=O)NC(=O)Nc2ccc(Oc3ncc(Cl)cn3)c(C)c2)CC1` [Compound 66, N-((4-((5-chloropyrimidin-2-yl)oxy)-3-methylphenyl)carbamoyl)-1-methoxycyclopropane-1-carboxamide], the “EC50 (μM) in LNCaP cells” value in series [1] was “Inactive”. In addition, the “EC50 (μM) in 22RV1 cells” value in series [3] is recorded as “Inactive”. Moreover, in series [4], the “EC50 (μM) in U87 cells” value is “Inactive”.

Turning to `COC1(C(=O)NC(=O)Nc2ccc(Oc3nccs3)c(C)c2)CC1` [Compound 68, 1-methoxy-N-((3-methyl-4-(thiazol-2-yloxy)phenyl)carbamoyl)cyclopropane-1-carboxamide], the “EC50 (μM) in LNCaP cells” value in series [1] is “Inactive”. In series [3], the “EC50 (μM) in 22RV1 cells” value is reported as “Inactive”. Besides, the “EC50 (μM) in U87 cells” value in series [4] is given as “Inactive”.

As to `COC1(C(=O)NC(=O)Nc2ccc(Oc3ncccn3)c(C)c2)CC1` [Compound 69, 1-methoxy-N-((3-methyl-4-(pyrimidin-2-yloxy)phenyl)carbamoyl)cyclopropane-1-carboxamide], the “EC50 (μM) in LNCaP cells” value in series [1] is given as “Inactive”. Besides, the “EC50 (μM) in 22RV1 cells” value in series [3] was “Inactive”. Further, the “EC50 (μM) in U87 cells” value in series [4] is on record as “Inactive”.

As to `COC12CC(C(=O)NC(=O)Nc3ccc(Oc4ncc(Cl)cn4)c(C)c3)(C1)C2` [Compound 85, N-((4-((5-chloropyrimidin-2-yl)oxy)-3-methylphenyl)carbamoyl)-3-methoxybicyclo[1.1.1]pentane-1-carboxamide], the solubility (kinetic) in series [5] is 2.21 µM (≈ 0.89 µg/mL). The compound further yielded a 50% effective concentration (EC50) in series [4] (Homo sapiens, U-87 MG, 72 h) of 0.06 µM.
